Measured values as given in US9290478B2, “Substituted quinoxalines as FGFR kinase inhibitors” (ASTEX THERAPEUTICS LTD, priority 2010, dated 2016).

Key:
[1] = target: FGFR2 (h) (Homo sapiens, UniProt P21802); assay: FGFR2 (enzymatic assay), TR-FRET; type: biochemical; conditions: 0.4 μM ATP; read-out: FGFR2 pIC50 (converted)
Procedure: (§1) In a final reaction volume of 30 μL, FGFR2 (h) (150 ng/ml) was incubated with 50 mM HEPES pH 7.5, 6 mM MnCl2, 1 mM DTT, 0.1 mM Na3VO4, 0.01% Triton-X-100, 500 nM Btn-Flt3 and 0.4 μM ATP in the presence of compound (1% DMSO final). After incubation for 60 minutes at room temperature the reaction was stopped with 2.27 nM EU-anti P-Tyr, 7 mM EDTA, 31.25 nM SA-XL-665 and 0.02% BSA which was present for 60 minutes at room temperature. Time-Resolved Fluorescence Resonance Energy Transfer (TR-FRET) signal (ex340 nm. Em 620 nm, em 655 nm) was measured afterwards and results are expressed in (Relative Fluorescence Units). In this assay, the inhibitory effect of different compound concentrations (range 10 μM to 0.1 nM) was determined and used to calculate an IC50 (M) and pIC50 (−log IC50) value.

[2] = target: T1, Ba/F3-Flt3-transfected cells (Homo sapiens, UniProt P36888, cells depend on it, form not given); assay: Ba/F3-Flt3 (minus IL3 or plus IL3) cellular proliferation assay; type: cell-based; conditions: minus IL3
T1 construct: BAF3-FLT3 (MIN IL3) pIC50; other: minus IL3
T1 sequence (P36888 1-993): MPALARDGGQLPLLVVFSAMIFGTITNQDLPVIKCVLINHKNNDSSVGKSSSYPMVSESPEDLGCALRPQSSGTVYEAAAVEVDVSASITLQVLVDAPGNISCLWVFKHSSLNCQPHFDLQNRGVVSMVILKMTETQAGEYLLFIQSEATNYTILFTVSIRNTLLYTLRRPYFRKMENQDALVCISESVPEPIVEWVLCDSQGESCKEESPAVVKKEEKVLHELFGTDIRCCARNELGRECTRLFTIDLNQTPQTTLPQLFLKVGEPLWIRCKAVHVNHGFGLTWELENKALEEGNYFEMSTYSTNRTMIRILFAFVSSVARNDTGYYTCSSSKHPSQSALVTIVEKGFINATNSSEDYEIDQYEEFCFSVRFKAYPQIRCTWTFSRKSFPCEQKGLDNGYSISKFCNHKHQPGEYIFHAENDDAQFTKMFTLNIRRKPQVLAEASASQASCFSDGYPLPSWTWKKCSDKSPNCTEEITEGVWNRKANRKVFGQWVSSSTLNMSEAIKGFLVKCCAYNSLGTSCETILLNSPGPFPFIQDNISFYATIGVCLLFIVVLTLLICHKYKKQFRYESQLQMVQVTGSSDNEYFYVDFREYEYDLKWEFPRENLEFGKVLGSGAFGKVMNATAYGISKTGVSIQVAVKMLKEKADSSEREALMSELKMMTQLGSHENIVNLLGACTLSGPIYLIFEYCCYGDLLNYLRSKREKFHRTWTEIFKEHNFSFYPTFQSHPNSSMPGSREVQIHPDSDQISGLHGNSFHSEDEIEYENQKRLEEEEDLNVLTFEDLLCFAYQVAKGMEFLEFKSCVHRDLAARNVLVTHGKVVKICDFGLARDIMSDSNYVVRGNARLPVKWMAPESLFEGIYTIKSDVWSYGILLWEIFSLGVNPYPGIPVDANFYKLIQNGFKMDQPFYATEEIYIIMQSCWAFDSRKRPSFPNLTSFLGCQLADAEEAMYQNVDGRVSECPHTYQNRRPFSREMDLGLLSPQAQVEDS
Procedure: (§2) Ba/F3-Flt3 (Minus IL3 or Plus IL3) (Cellular Proliferation Assay)
(§3) In a 384 well plate, 100 nl of compound dilution in DMSO was sprayed before adding 50 μl cell culture medium (phenol red free RPMI-1640, 10% FBS, 2 mM L-Glutamine and 50 μg/ml Gentamycin) containing 20000 cells per well of Ba/F3-Flt3-transfected cells. Cells were put in an incubator at 37° C. and 5% CO2. After 24 hours, 10 μl of Alamar Blue solution (0.5 mM K3Fe(CN)6, 0.5 mM K4Fe(CN)6, 0.15 mM Resazurin and 100 mM Phosphate Buffer) was added to the wells, incubated for 4 hours at 37° C. and 5% CO2 before RFU's (Relative Fluorescence Units) (ex. 540 nm., em. 590 nm.) were measured in a fluororescence plate reader.
(§4) In this assay, the inhibitory effect of different compound concentrations (range 10 μM to 0.1 nM) was determined and used to calculate an IC50 (M) and pIC50 (−log IC50) value.
(§5) As a counterscreen the same experiment was performed in the presence of 10 ng/ml murine IL3.

[3] = system: Ba/F3-Flt3-transfected cells; assay: as above; type: cell-based; conditions: plus 10 ng/ml murine IL3 (counterscreen); for IC50: 24 h, read-out: BAF3_FLT3 (PLUS IL3) pIC50 (converted)
Procedure: as §2, §3, §4, §5

[4] = target: KDR (h) (VEGFR2) (Homo sapiens, UniProt P35968); assay: KDR (VEGFR2) (enzymatic assay), TR-FRET; type: biochemical; conditions: 3 μM ATP; for IC50: read-out: VEGFR2 (KDR) pIC50 (converted)
Procedure: KDR (VEGFR2) (Enzymatic Assay)
as §1, with “30 μL, KDR (h) (150” for “30 μL, FGFR2 (h) (150”, “Btn-Flt3 and 3 μM ATP” for “Btn-Flt3 and 0.4 μM ATP”, “incubation for 120 minutes at” for “incubation for 60 minutes at”, “expressed in RFU (Relative Fluorescence” for “expressed in (Relative Fluorescence”

Sequence of KDR (h) (VEGFR2) (P35968 20-1356): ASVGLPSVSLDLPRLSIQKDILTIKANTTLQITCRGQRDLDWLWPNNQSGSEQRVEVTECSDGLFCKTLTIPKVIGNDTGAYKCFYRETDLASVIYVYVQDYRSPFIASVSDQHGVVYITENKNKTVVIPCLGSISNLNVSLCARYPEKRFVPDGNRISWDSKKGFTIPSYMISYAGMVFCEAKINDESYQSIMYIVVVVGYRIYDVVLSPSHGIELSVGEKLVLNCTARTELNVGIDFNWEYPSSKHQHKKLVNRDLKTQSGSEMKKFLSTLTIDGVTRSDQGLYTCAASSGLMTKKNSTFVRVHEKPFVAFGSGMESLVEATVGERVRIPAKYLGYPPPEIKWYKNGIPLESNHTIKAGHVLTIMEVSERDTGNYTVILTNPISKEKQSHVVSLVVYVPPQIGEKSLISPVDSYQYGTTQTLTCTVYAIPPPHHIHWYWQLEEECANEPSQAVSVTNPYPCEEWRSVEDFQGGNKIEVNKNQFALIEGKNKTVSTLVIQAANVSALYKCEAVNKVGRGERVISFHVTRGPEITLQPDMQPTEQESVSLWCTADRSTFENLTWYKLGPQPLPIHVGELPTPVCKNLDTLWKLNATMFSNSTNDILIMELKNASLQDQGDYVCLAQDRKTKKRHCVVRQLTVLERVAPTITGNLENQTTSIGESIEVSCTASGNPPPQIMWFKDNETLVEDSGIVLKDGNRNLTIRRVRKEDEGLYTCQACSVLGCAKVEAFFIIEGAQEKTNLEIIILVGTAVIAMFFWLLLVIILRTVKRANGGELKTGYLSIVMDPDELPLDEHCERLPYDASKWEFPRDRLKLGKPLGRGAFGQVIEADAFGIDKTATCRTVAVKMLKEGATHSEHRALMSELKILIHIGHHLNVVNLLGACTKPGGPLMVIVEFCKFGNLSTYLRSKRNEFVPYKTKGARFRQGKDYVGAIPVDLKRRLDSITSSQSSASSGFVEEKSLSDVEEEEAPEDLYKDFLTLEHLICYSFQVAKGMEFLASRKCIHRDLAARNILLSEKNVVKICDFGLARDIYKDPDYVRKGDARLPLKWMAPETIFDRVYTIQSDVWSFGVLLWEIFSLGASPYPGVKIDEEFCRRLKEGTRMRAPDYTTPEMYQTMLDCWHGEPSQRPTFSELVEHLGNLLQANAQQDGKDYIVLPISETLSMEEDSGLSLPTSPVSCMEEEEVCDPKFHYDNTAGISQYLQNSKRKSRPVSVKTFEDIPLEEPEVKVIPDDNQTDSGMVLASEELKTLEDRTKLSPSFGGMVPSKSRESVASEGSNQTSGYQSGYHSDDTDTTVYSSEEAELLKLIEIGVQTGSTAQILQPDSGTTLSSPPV
Sequence of FGFR2 (h) (P21802 22-821): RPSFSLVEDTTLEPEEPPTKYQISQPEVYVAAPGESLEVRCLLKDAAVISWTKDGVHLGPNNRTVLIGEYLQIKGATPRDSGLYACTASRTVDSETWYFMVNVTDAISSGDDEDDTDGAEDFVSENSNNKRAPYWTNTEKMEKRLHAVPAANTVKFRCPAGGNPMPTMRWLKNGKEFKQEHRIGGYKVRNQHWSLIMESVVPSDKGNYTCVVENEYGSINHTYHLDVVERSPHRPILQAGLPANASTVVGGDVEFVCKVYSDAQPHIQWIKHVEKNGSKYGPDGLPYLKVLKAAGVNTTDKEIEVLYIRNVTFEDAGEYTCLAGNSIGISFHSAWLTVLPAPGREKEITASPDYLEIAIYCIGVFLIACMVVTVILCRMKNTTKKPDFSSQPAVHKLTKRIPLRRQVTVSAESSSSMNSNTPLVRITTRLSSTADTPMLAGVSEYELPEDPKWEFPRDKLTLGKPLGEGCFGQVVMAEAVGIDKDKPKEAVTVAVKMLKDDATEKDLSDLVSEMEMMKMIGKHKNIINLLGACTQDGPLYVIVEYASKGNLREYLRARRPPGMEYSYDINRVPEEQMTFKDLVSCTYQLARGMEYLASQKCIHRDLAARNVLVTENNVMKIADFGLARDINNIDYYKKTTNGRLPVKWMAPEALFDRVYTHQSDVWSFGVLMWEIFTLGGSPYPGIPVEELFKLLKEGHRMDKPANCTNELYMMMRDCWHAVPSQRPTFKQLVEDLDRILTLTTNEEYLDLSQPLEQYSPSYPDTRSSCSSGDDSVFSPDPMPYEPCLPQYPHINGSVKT

IC50 [1] [nM] | BAF3-FLT3 (MIN IL3) pIC50 [2] | IC50 [4] [nM] | VEGFR2 (KDR) pIC50 [4] | Compound | IC50 [3] [nM] | BAF3_FLT3 (PLUS IL3) pIC50 [3]
12.9 | <5 | 245 |  | COc1cc(OC)cc(/C(=C\CNCC(F)(F)F)c2ccc3ncc(-c4cnn(C)c4)nc3c2)c1 [Compound 14, {(Z)-3-(3,5-Dimethoxy-phenyl)-3-[3-(1-methyl-1H-pyrazol-4-yl)-quinoxalin-6-yl]-allyl}-(2,2,2-trifluoro-ethyl)-amine] | > 10000 | 
170 | <5 | > 1000 |  | COc1cc(OC)cc(/C(=C/CN(C)C)c2ccc3ncc(-c4cnn(C)c4)nc3c2)c1 [Compound 34] | > 10000 | 
209 | <5 | 708 |  | COc1cc(OC)cc(C(=O)c2ccc3ncc(-c4cnn(C)c4)nc3c2)c1 [Compound 2] | > 10000 | 
5130 | <5 | 3980 |  | COc1cc(OC)cc(/C(=C/C#N)c2ccc3ncc(-c4cnn(C)c4)nc3c2)c1 [Compound 3] | > 10000 | 
15.8 | <5 | > 1000 |  | COc1cc(OC)cc(/C(=C\CN(C)C)c2ccc3ncc(-c4cnn(C)c4)nc3c2)c1 [Compound 10, {(Z)-3-(3,5-Dimethoxy-phenyl)-3-[3-(1-methyl-1H-pyrazol-4-yl)-quinoxalin-6-yl]-allyl}-dimethyl-amine] | > 10000 | 
851 | <5 | > 10000 |  | COc1cc(OC)cc(C(CCNC(C)C)c2ccc3ncc(-c4cnn(C)c4)nc3c2)c1 (single isomer, unassigned) [Compound 32a] |  | <5
126 | <5 | > 1000 |  | COc1cc(OC)cc(C(CCO)c2ccc3ncc(-c4cnn(C)c4)nc3c2)c1 (stereo not shown) [Compound 22] | > 10000 | 
38 | <5 | 347 |  | COc1cc(OC)cc(C(CCN2CCCC2=O)c2ccc3ncc(-c4cnn(C)c4)nc3c2)c1.Cl (stereo not shown) [Compound 7] | > 10000 | 

Second part, the molecule before the results:

Compound | IC50 [1] [nM] | BAF3-FLT3 (MIN IL3) pIC50 [2] | IC50 [4] [nM] | VEGFR2 (KDR) pIC50 [4] | IC50 [3] [nM] | BAF3_FLT3 (PLUS IL3) pIC50 [3]
COc1cc(OC)cc(C(NCCNC(C)C)c2ccc3ncc(-c4cnn(C)c4)nc3c2)c1.Cl (single isomer, unassigned) [Compound 24] | 324 | <5 | > 1000 |  | > 10000 | 
COc1cc(OC)cc(C(CCNCC(F)(F)F)c2ccc3ncc(-c4cnn(C)c4)nc3c2)c1.Cl (stereo not shown) [Compound 33] | 380 | <5 | > 1000 |  | > 10000 | 
COc1cc(OC)cc(C(CC(=O)NC(C)C)c2ccc3ncc(-c4cnn(C)c4)nc3c2)c1 (stereo not shown) [Compound 23] | > 1000 | <5 | > 1000 |  | > 10000 | 
COc1cc(OC)cc(/C(=C\C#N)c2ccc3ncc(-c4cnn(C)c4)nc3c2)c1 [Compound 4] | 102 | 5.29 | 661 |  | > 10000 | 
COc1cc(OC)cc(C(O)(CNCCNC(C)C)c2ccc3ncc(-c4cnn(C)c4)nc3c2)c1 (single isomer, unassigned) [Compound 6] | 813 | <5 |  |  |  | 
COc1cc(OC)cc(C(NCCNC(C)C)c2ccc3ncc(-c4cnn(C)c4)nc3c2)c1.Cl (single isomer, unassigned) [Compound 39] | > 1000 | <5 |  | <6 |  | <5
CNCC(O)(c1cc(OC)cc(OC)c1)c1ccc2ncc(-c3cnn(C)c3)nc2c1.Cl (single isomer, unassigned) [Compound 37] | 589 | <5 | > 1000 |  | > 10000 | 
COc1cc(OC)cc(/C(=C\CNC(C)C)c2ccc3ncc(-c4cnn(C)c4)nc3c2)c1 [Compound 8, {(Z)-3-(3,5-Dimethoxy-phenyl)-3-[3-(1-methyl-1H-pyrazol-4-yl)-quinoxalin-6-yl]-allyl}-isopropyl-amine] | 10.7 | 5.09 | 389 |  | ~8710 | 
COc1cc(OC)cc(C(CC#N)c2ccc3ncc(-c4cnn(C)c4)nc3c2)c1 (stereo not shown) [Compound 18] | 145 | <5 | > 1000 |  | > 10000 | 
COc1cc(OC)cc(/C(=C/CNC(C)C)c2ccc3ncc(-c4cnn(C)c4)nc3c2)c1 [Compound 9] | 87.1 | ~5.05 | 4470 |  | > 10000 | 
COc1cc(OC)cc(C(CCCN)c2ccc3ncc(-c4cnn(C)c4)nc3c2)c1.Cl (stereo not shown) [Compound 40] | 427 | <5 | > 1000 |  | > 10000 | 
COc1cc(OC)cc(C2(c3ccc4ncc(-c5cnn(C)c5)nc4c3)CC2)c1 [Compound 30] | 50.1 | <5 | 501 |  | > 10000 | 
Cn1cc(-c2cnc3ccc(C(O)c4ccccc4)cc3n2)cn1 (stereo not shown) [Compound 28] | 2630 | <5 | 1580 |  | > 10000 | 
COc1cc(OC)cc(C(CCNC(C)C)c2ccc3ncc(-c4cnn(C)c4)nc3c2)c1.Cl (stereo not shown) [Compound 29, {3-(3,5-Dimethoxy-phenyl)-3-[3-(1-methyl-1H-pyrazol-4-yl)-quinoxalin-6-yl]-propyl}-isopropyl-amine] | 25.7 | <5 | > 1000 |  | > 10000 | 
COc1cc(OC)cc(C(CCN(C)C)c2ccc3ncc(-c4cnn(C)c4)nc3c2)c1.Cl (stereo not shown) [Compound 21] | 67.6 | <5 | > 1000 |  | > 10000 | 
COc1cc(OC)cc(C(O)(CNCCNC(C)C)c2ccc3ncc(-c4cnn(C)c4)nc3c2)c1 (single isomer, unassigned) [Compound 5] | ~741 | <5 | > 1000 |  | > 10000 | 
